Tested on: parental untransformed BaF3 cells
Test: Tritiated thymidine uptake cell proliferation assay, parental BaF3
Type: cell-based
Settings: 3H-thymidine uptake, 72 h, medium with IL-3

For “62:38 mixture of (E)-6-(4-(4-methylpiperazin-1-yl)phenyl)-4-(1-phenylbut-1-en-2-yl)-9H-pyrido[2,3-b]indole and (E)-6-(4-(4-methylpiperazin-1-yl)phenyl)-4-(1-phenylbut-1-en-1-yl)-9H-pyrido[2,3-b]indole [Example 31]”, the IC50 was 930 nM.

Same assay, conditions: Mus musculus, BaF3; 3H-thymidine uptake, 72 h, medium with IL-3

`CN1CCN(c2ccc(-c3ccc4[nH]c5nccc(Cl)c5c4c3)cc2)CC1` [Example 1, 4-Chloro-6-[4-(4-methylpiperazin-1-yl)-phenyl]-9H-pyrido[2,3-b]indole] and `CN1CCN(c2ccc(-c3ccc4[nH]c5nccc(/C=C/c6ccccc6Cl)c5c4c3)cc2)CC1` [Example 19, (E)-4-(2-(2-Chlorophenyl)vinyl)-6-(4-(4-methylpiperazin-1-yl)phenyl)-9H-pyrido[2,3-b]indole] are within 1.5-fold of each other in IC50: 1400 nM for the first, 2000 nM for the second.

First: CN1CCN(c2ccc(-c3ccc4[nH]c5nccc(/C=C/c6ccccc6)c5c4c3)cc2)CC1 [Example 2, (E)-6-[4-(4-Methylpiperazin-1-yl)-phenyl]-4-(2-phenylvinyl)-9H-pyrido[2,3-b]indole]
Second: CN1CCN(c2ccc(-c3ccc4[nH]c5nccc(/C=C/c6cccc(F)c6)c5c4c3)cc2)CC1 [Example 6, (E)-4-[2-(3-Fluorophenyl)vinyl]-6-[4-(4-methylpiperazin-1-yl)-phenyl]-9H-pyrido[2,3-b]indole]
The IC50 of the first is 12-fold lower: 800 nM for the first, 9500 nM for the second.

`C/C(=C\c1ccccc1C(F)(F)F)c1ccnc2[nH]c3ccc(-c4ccc(N5CCN(C)CC5)cc4)cc3c12` [Example 3, (E)-6-[4-(4-Methylpiperazin-1-yl)-phenyl]-4-[1-(2-(trifluoromethyl)phenyl)prop-1-en-2-yl]-9H-pyrido[2,3-b]indole] and `CN1CCN(c2ccc(-c3ccc4[nH]c5nccc(/C=C/c6ccccc6C(F)(F)F)c5c4c3)cc2)CC1` [Example 11, (E)-6-(4-(4-Methylpiperazin-1-yl)phenyl)-4-(2-(2-(trifluoromethyl)phenyl)vinyl)-9H-pyrido[2,3-b]indole] are within 1.5-fold of each other in IC50: 2400 nM for the first, 1700 nM for the second.

Going from `CN1CCN(c2ccc(-c3ccc4[nH]c5nccc(-c6ccc(-c7ccccc7)cc6)c5c4c3)cc2)CC1` [Example 5, 4-Biphenyl-4-yl-6-[4-(4-methylpiperazin-1-yl)-phenyl]-9H-pyrido[2,3-b]indole] to `CN1CCN(c2ccc(-c3ccc4[nH]c5nccc(-c6cccc(-c7ccccc7)c6)c5c4c3)cc2)CC1` [Example 17, 4-Biphenyl-3-yl-6-[4-(4-methylpiperazin-1-yl)-phenyl]-9H-pyrido[2,3-b]indole], the IC50 falls from > 25000 nM to 2700 nM.

Going from `COc1ccc(/C=C/c2ccnc3[nH]c4ccc(-c5ccc(N6CCN(C)CC6)cc5)cc4c23)cc1` [Example 7, (E)-4-[2-(4-Methoxyphenyl)vinyl]-6-[4-(4-methylpiperazin-1-yl)-phenyl]-9H-pyrido[2,3-b]indole] to `CN1CCN(c2ccc(-c3ccc4[nH]c5nccc(/C=C/c6ccc(F)cc6)c5c4c3)cc2)CC1` [Example 13, (E)-4-(2-(4-Fluorophenyl)vinyl)-6-(4-(4-methylpiperazin-1-yl)phenyl)-9H-pyrido[2,3-b]indole], the IC50 rises from 4100 nM to 7600 nM (1.9-fold). The first is the more potent here.

Going from `CN1CCN(c2ccc(-c3ccc4[nH]c5nccc(-c6ccc(OCc7ccccc7)cc6)c5c4c3)cc2)CC1` [Example 8, 4-(4-Benzyloxyphenyl)-6-[4-(4-methylpiperazin-1-yl)-phenyl]-9H-pyrido[2,3-b]indole] to `CN1CCN(c2ccc(-c3ccc4[nH]c5nccc(-c6ccc(C(=O)c7ccccc7)cc6)c5c4c3)cc2)CC1` [Example 23, (4-{6-[4-(4-Methylpiperazin-1-yl)-phenyl]-9H-pyrido[2,3-b]indol-4-yl}-phenyl)-phenyl-methanone], the IC50 falls from 5000 nM to 2300 nM (2.2-fold).

First: CN1CCN(c2ccc(-c3ccc4[nH]c5nccc(-c6ccc(COc7cccc(C(F)(F)F)c7)cc6)c5c4c3)cc2)CC1 [Example 9, 6-[4-(4-Methylpiperazin-1-yl)-phenyl]-4-[4-(3-trifluoromethyl-phenoxymethyl)-phenyl]-9H-pyrido[2,3-b]indole]
Second: Cc1cc(OCc2ccc(-c3ccnc4[nH]c5ccc(-c6ccc(N7CCN(C)CC7)cc6)cc5c34)cc2)ccc1Cl [Example 12, 4-[4-(4-Chloro-3-methyl-phenoxymethyl)-phenyl]-6-[4-(4-methylpiperazin-1-yl)-phenyl]-9H-pyrido[2,3-b]indole]
The IC50 of the first is lower: 25000 nM for the first, > 50000 nM for the second. The first is the more potent here.

Going from `COc1ccccc1/C=C/c1ccnc2[nH]c3ccc(-c4ccc(N5CCN(C)CC5)cc4)cc3c12` [Example 10, (E)-4-(2-(2-Methoxyphenyl)vinyl)-6-(4-(4-methylpiperazin-1-yl)phenyl)-9H-pyrido[2,3-b]indole] to `CN1CCN(c2ccc(-c3ccc4[nH]c5nccc(/C=C/c6ccccc6F)c5c4c3)cc2)CC1` [Example 18, (E)-4-(2-(2-Fluorophenyl)vinyl)-6-(4-(4-methylpiperazin-1-yl)phenyl)-9H-pyrido[2,3-b]indole], the IC50 rises from 2100 nM to 5100 nM (2.4-fold).

First: CN1CCN(c2ccc(-c3ccc4[nH]c5nccc(/C=C/c6ccc(C(F)(F)F)cc6)c5c4c3)cc2)CC1 [Example 14, (E)-6-(4-(4-Methylpiperazin-1-yl)phenyl)-4-(2-(4-(trifluoromethyl)phenyl)vinyl)-9H-pyrido[2,3-b]indole]
Second: CN1CCN(c2ccc(-c3ccc4[nH]c5nccc(/C=C/c6ccccc6NS(C)(=O)=O)c5c4c3)cc2)CC1 [Example 29, N-[(E)-2-(2-{6-[4-(4-Methylpiperazin-1-yl)-phenyl]-9H-pyrido[2,3-b]indol-4-yl}-vinyl)-phenyl]-methanesulfonamide]
The IC50 of the first is higher: > 25000 nM for the first, 680 nM for the second. The second is the more potent here.

First: CN1CCN(c2ccc(-c3ccc4[nH]c5nccc(-c6ccc(-c7ccccc7)cc6F)c5c4c3)cc2)CC1 [Example 15, 4-(3-Fluoro-biphenyl-4-yl)-6-[4-(4-methylpiperazin-1-yl)-phenyl]-9H-pyrido[2,3-b]indole]
Second: CN1CCN(c2ccc(-c3ccc4[nH]c5nccc(-c6ccc(C(O)c7ccccc7)cc6)c5c4c3)cc2)CC1 (centres unmarked) [Example 33, (4-{6-[4-(4-Methylpiperazin-1-yl)-phenyl]-9H-pyrido[2,3-b]indol-4-yl}-phenyl)-phenyl-methanol]
The IC50 of the first is 6.3-fold higher: 6300 nM for the first, 1000 nM for the second. The second is the more potent here.

Going from `CN1CCC(N2CCN(c3ccc(-c4ccc5[nH]c6nccc(-c7ccc(Cc8ccccc8)cc7)c6c5c4)cc3)CC2)CC1` [Example 21, 4-(4-Benzylphenyl)-6-(4-(4-(1-methylpiperidin-4-yl)piperazin-1-yl)phenyl)-9H-pyrido[2,3-b]indole] to `CN1CCC(N2CCN(c3ccc(-c4ccc5[nH]c6nccc(Nc7ccccc7[N+](=O)[O-])c6c5c4)cc3)CC2)CC1` [Example 36, 6-(4-(4-(1-Methylpiperidin-4-yl)piperazin-1-yl)phenyl)-N-(2-nitrophenyl)-9H-pyrido[2,3-b]indol-4-amine], the IC50 rises from 3700 nM to 7100 nM (1.9-fold).

Going from `CN1CCC(N2CCN(c3ccc(-c4ccc5[nH]c6nccc(/C=C/c7ccccc7C(F)(F)F)c6c5c4)cc3)CC2)CC1` [Example 22, (E)-6-(4-(4-(1-Methylpiperidin-4-yl)piperazin-1-yl)phenyl)-4-(2-(2-(trifluoromethyl)phenyl)vinyl)-9H-pyrido[2,3-b]indole] to `COc1ccccc1/C=C(\C)c1ccnc2[nH]c3ccc(-c4ccc(N5CCN(C)CC5)cc4)cc3c12` [Example 27, (E)-4-[1-(2-Methoxyphenyl)-prop-1-en-2-yl]-6-[4-(4-methylpiperazin-1-yl)-phenyl]-9H-pyrido[2,3-b]indole], the IC50 falls from 3900 nM to 2400 nM (1.6-fold). The second is the more potent here.

Going from `CN1CCN(c2ccc(-c3ccc4[nH]c5nccc(-c6ccc(-c7cccc8ccccc78)cc6)c5c4c3)cc2)CC1` [Example 24, 6-[4-(4-Methylpiperazin-1-yl)-phenyl]-4-(4-naphthalen-1-yl-phenyl)-9H-pyrido[2,3-b]indole] to `COc1ccc(Cc2ccc(-c3ccnc4[nH]c5ccc(-c6ccc(N7CCN(C)CC7)cc6)cc5c34)cc2)c(OC)c1` [Example 26, 4-[4-(2,4-Dimethoxybenzyl)phenyl]-6-[4-(4-methylpiperazin-1-yl)-phenyl]-9H-pyrido[2,3-b]indole], the IC50 falls from 18000 nM to 630 nM (29-fold). The second is the more potent here.

Compared with `CN1CCN(c2ccc(-c3ccc4[nH]c5nccc(/C(=C/c6ccccc6)c6ccccc6)c5c4c3)cc2)CC1` [Example 25, (E)-4-(1,2-Diphenylvinyl)-6-[4-(4-methylpiperazin-1-yl)-phenyl]-9H-pyrido[2,3-b]indole], `C/C(=C\c1ccccc1)c1ccnc2[nH]c3ccc(-c4ccc(N5CCN(C)CC5)cc4)cc3c12` [Example 28, (E)-6-(4-(4-methylpiperazin-1-yl)phenyl)-4-(1-phenylprop-1-en-2-yl)-9H-pyrido[2,3-b]indole] is 9.4-fold lower in IC50: 7500 nM for the first, 800 nM for the second. The second is the more potent here.

First: CC/C=C(\c1ccccc1)c1ccnc2[nH]c3ccc(-c4ccc(N5CCN(C)CC5)cc4)cc3c12 [Example 30, (E)-6-[4-(4-Methylpiperazin-1-yl)-phenyl]-4-(1-phenyl-but-1-enyl)-9H-pyrido[2,3-b]indole]
Second: CN1CCN(c2ccc(-c3ccc4[nH]c5nccc(C#Cc6ccccc6)c5c4c3)cc2)CC1 [Example 37, 6-[4-(4-Methylpiperazin-1-yl)-phenyl]-4-phenylethynyl-9H-pyrido[2,3-b]indole]
The IC50 of the first is 20-fold lower: 220 nM for the first, 4400 nM for the second.

First: CC(C)[Si](C=Cc1ccnc2[nH]c3ccc(-c4ccc(N5CCN(C)CC5)cc4)cc3c12)(C(C)C)C(C)C [Example 32, (E) and (Z)-6-(4-(4-methylpiperazin-1-yl)phenyl)-4-(2-(triisopropylsilyl)vinyl)-9H-pyrido[2,3-b]indole]
Second: COc1ccccc1C#Cc1ccnc2[nH]c3ccc(-c4ccc(N5CCN(C)CC5)cc4)cc3c12 [Example 38, 4-(2-Methoxyphenylethynyl)-6-[4-(4-methylpiperazin-1-yl)-phenyl]-9H-pyrido[2,3-b]indole]
The IC50 of the first is 4.6-fold higher: 6900 nM for the first, 1500 nM for the second. The second is the more potent here.

Going from `CN1CCN(c2ccc(-c3ccc4[nH]c5nccc(Nc6ccccc6[N+](=O)[O-])c5c4c3)cc2)CC1` [Example 34, {6-[4-(4-Methylpiperazin-1-yl)-phenyl]-9H-pyrido[2,3-b]indol-4-yl}-(2-nitro-phenyl)-amine] to `CN1CCN(c2ccc(-c3ccc4[nH]c5nccc(Nc6cccc([N+](=O)[O-])c6)c5c4c3)cc2)CC1` [Example 35, 6-(4-(4-Methylpiperazin-1-yl)phenyl)-N-(3-nitrophenyl)-9H-pyrido[2,3-b]indol-4-amine], the IC50 falls from 860 nM to 480 nM (1.8-fold). The second is the more potent here.

From patent publication US9428500B2, “Alpha-carbolines for the treatment of cancer” (UNIVERSITA' DEGLI STUDI DI MILANO—BICOCCA, priority 2012, dated 2016)
